Assay results published in ChEMBL document CHEMBL4325932, “Adaptable Small Ligand of CYP1 Enzymes for Use in Understanding the Structural Features Determining Isoform Selectivity” (ACS Med Chem Lett, 2018).

How the values were obtained:
Type in all cases: cell membranes
Cytochrome P450 1A1 = molecular target: T1, Cytochrome P450 1A1 (Homo sapiens, UniProt P04798); assay: Inhibition of recombinant human CYP1A1 expressed in Escherichia coli membranes co-expressing NADPH-P450 reductase assessed as reduction in ethoxyresorufin O-de-ethylation preincubated for 3 mins followed by NADPH addition and measured after 10 mins by fluorometric method
T1 sequence (P04798 whole entry): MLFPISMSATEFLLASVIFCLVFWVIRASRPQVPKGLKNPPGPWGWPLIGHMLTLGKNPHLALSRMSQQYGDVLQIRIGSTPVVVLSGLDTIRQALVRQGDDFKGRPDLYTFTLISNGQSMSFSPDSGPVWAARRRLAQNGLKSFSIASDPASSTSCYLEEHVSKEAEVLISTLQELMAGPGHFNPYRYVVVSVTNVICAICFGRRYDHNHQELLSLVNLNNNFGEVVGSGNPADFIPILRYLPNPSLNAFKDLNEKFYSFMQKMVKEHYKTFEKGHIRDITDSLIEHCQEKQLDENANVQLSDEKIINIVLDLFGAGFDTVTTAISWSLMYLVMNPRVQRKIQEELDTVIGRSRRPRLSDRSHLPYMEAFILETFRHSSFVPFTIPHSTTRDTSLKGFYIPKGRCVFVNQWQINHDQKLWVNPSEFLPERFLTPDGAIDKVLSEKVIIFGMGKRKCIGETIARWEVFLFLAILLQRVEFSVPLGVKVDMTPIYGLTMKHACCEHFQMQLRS

Homo sapiens [1] = species on record: Homo sapiens; assay: Selectivity ratio of IC50 for recombinant human CYP1A1 expressed in Escherichia coli membranes to IC50 for recombinant human CYP1B1 expressed in Escherichia coli membranes
Homo sapiens [2] = species on record: Homo sapiens; assay: Selectivity ratio of IC50 for recombinant human CYP1A1 expressed in Escherichia coli membranes to IC50 for recombinant human CYP1A2 expressed in Escherichia coli membranes
Homo sapiens [3] = species on record: Homo sapiens; assay: Selectivity ratio of IC50 for recombinant human CYP1A2 expressed in Escherichia coli membranes to IC50 for recombinant human CYP1B1 expressed in Escherichia coli membranes
Cytochrome P450 1B1 = molecular target: T2, Cytochrome P450 1B1 (Homo sapiens, UniProt Q16678); assay: Inhibition of recombinant human CYP1B1 expressed in Escherichia coli membranes co-expressing NADPH-P450 reductase assessed as reduction in ethoxyresorufin O-de-ethylation preincubated for 3 mins followed by NADPH addition and measured after 10 mins by fluorometric method
T2 sequence (Q16678 whole entry): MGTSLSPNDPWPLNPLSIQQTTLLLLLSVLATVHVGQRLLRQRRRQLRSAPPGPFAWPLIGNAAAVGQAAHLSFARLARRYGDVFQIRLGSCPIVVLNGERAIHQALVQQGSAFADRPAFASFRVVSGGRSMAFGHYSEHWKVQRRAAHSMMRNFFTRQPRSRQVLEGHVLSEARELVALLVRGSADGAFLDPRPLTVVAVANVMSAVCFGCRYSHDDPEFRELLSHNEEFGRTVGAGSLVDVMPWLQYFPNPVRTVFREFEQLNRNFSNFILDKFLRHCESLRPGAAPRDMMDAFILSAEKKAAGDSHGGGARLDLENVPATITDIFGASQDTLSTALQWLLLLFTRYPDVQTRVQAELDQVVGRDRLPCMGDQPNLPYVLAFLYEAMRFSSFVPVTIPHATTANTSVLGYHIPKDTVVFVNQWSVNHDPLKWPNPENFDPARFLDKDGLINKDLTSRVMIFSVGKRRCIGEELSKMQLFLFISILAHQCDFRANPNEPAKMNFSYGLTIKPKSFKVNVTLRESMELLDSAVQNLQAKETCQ

Cytochrome P450 1A2 = molecular target: T3, Cytochrome P450 1A2 (Homo sapiens, UniProt P05177); assay: Inhibition of recombinant human CYP1A2 expressed in Escherichia coli membranes co-expressing NADPH-P450 reductase assessed as reduction in ethoxyresorufin O-de-ethylation preincubated for 3 mins followed by NADPH addition and measured after 10 mins by fluorometric method
T3 sequence (P05177 whole entry): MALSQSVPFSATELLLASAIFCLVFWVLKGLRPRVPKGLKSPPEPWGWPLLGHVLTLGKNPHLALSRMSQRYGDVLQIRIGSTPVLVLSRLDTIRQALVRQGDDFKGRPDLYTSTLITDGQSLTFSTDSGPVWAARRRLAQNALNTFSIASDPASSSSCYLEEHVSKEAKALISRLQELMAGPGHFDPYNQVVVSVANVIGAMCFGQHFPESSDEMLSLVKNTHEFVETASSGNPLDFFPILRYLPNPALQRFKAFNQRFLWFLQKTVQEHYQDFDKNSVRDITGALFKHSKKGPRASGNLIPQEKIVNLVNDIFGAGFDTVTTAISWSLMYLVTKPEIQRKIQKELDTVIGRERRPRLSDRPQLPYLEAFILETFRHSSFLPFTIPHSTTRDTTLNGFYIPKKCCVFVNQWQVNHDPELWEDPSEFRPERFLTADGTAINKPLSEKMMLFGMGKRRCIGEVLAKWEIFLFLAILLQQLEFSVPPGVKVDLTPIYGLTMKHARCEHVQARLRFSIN

IC50 (Cytochrome P450 1A1) [nM]	Ratio IC50 (Homo sapiens [1])	Ratio IC50 (Homo sapiens [2])	Ratio IC50 (Homo sapiens [3])	IC50 (Cytochrome P450 1B1) [nM]	IC50 (Cytochrome P450 1A2) [nM]	Compound
55						O=c1cc(-c2ccccc2)oc2c1ccc1ccccc12 [ALPHA-NAPHTHOFLAVONE]
	30.5	5.5	5.5			COc1cc(/C=C/c2cccs2)cc(OC)c1
41	10.3	27.3	0.4	4	1.5	COc1cc(/C=C/c2cccs2)cc(OCCn2ccnc2)c1
